pIC50: −log10 of the molar value. Bounds are passed on as bounds.

The target in the test is T1, recombinant Plk1 protein (Homo sapiens, UniProt P53350).
T1 construct: histidine tag (N); made in house; host or cells: SF9 insect cells
T1 sequence (P53350 whole entry): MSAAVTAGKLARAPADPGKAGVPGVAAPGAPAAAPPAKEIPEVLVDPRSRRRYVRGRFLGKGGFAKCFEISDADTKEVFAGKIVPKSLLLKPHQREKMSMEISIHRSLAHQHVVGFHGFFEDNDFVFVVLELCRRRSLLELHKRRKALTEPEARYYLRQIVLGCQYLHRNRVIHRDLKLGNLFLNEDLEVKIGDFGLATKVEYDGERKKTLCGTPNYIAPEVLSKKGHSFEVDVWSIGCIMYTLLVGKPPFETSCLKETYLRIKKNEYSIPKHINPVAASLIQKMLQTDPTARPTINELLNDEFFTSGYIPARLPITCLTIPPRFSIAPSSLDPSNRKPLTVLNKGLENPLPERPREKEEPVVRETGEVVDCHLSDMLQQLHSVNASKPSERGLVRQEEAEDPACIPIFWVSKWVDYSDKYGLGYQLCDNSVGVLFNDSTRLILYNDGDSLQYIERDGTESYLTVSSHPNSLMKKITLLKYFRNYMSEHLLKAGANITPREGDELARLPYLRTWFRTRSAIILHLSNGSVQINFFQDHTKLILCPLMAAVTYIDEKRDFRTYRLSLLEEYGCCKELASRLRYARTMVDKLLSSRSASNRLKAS
Briefly: Plk1 kinase activity inhibition assay (33P-ATP, alpha casein substrate, flash plates). Format: biochemical. Conditions: enzymatic assay, 100 nM Li-ATP, 80 minutes at 30° C. Summed up: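 IC50 derived from radioactive flash-plate counts of 33P-labelled alpha casein after 80 min at 30 °C. Reaction: 100 nM 33P-containing ATP, 50–100 ng His-tagged Plk1 (SF9-expressed), 500 ng casein per well, HEPES pH 7.5 buffer with MgCl2/MnCl2.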
On to `C[C@@H](Oc1cc(-n2cnc3cnc(CN4CCN(CC5CCN(C)CC5)CC4)cc32)sc1C(N)=O)c1ccccc1C(F)(F)F` [Example 85, 5-[6-({4-[(1-methylpiperidin-4-yl)methyl]piperazin-1-yl}methyl)-1H-imidazo[4,5-c]pyridin-1-yl]-3-{(1R)-1-[2-(trifluoromethyl)phenyl]ethoxy}thiophene-2-carboxamide], for which the pIC50 was 6.00 to 7.00.
For the compound `C[C@@H](Oc1cc(-n2cnc3cnc(CN4CCN(c5ccncc5)CC4)cc32)sc1C(N)=O)c1ccccc1C(F)(F)F` [Example 75, 5-{6-[(4-pyridin-4-ylpiperazin-1-yl)methyl]-1H-imidazo[4,5-c]pyridin-1-yl}-3-{(1R)-1-[2-(trifluoromethyl)phenyl]ethoxy}thiophene-2-carboxamide], the pIC50 was 7.00 to 8.00.
`CC(Oc1cc(-n2cnc3ccncc32)sc1C(N)=O)c1ccccc1Cl` (centres unmarked) [Example 12, 3-[1-(2-Chlorophenyl)ethoxy]-5-(3H-imidazo[4,5-c]pyridin-3-yl)thio-phene-2-carboxamide]: the pIC50 is more than 8.00.
Next, `Cc1ccccc1C(C)Oc1cc(-n2cnc3cnc(CN4CCN(C)CC4)cc32)sc1C(N)=O` (centres unmarked) [Example 148, 3-[1-(2-methylphenyl)ethoxy]-5-{6-[(4-methylpiperazin-1-yl)methyl]-1H-imidazo[4,5-c]pyridin-1-yl}thiophene-2-carboxamide]: more than 8.00; `C[C@@H](Oc1cc(-n2cnc3cnc(CN4CCN(C(N)=O)CC4)cc32)sc1C(N)=O)c1ccccc1C(F)(F)F` [Example 67, 4-{[1-(5-carbamoyl-4-{(1R)-1-[2-(trifluoromethyl)phenyl]ethoxy}-2-thienyl)-1H-imidazo[4,5-c]pyridin-6-yl]methyl}piperazine-1-carboxamide]: more than 8.00.
Then `C[C@@H](Oc1cc(-n2cnc3cnc(CNCCN4CCOCC4)cc32)sc1C(N)=O)c1ccccc1C(F)(F)F` [Example 147, 5-(6-{[(2-morpholin-4-ylethyl)amino]methyl}-1H-imidazo[4,5-c]pyridin-1-yl)-3-{(1R)-1-[2-(trifluoromethyl)phenyl]ethoxy}thiophene-2-carboxamide], with 7.00 to 8.00; and `C[C@@H](Oc1cc(-n2cnc3cnc(CN4CCN(S(=O)(=O)N(C)C)CC4)cc32)sc1C(N)=O)c1ccccc1C(F)(F)F` [Example 71, 5-[6-({4-[(dimethylamino)sulfonyl]piperazin-1-yl}methyl)-1H-imidazo[4,5-c]pyridin-1-yl]-3-{(1R)-1-[2-(trifluoromethyl)phenyl]ethoxy}thiophene-2-carboxamide], with 7.00 to 8.00; and `C[C@@H](Oc1cc(-n2cnc3cnc(CN4CCN(c5ncccn5)CC4)cc32)sc1C(N)=O)c1ccccc1C(F)(F)F` [Example 77, 5-{6-[(4-pyrimidin-2-ylpiperazin-1-yl)methyl]-1H-imidazo[4,5-c]pyridin-1-yl}-3-{(1R)-1-[2-(trifluoromethyl)phenyl]ethoxy}thiophene-2-carboxamide], with 7.00 to 8.00.
Then `C[C@@H](Oc1cc(-n2cnc3cnc(CN4CCN(CCN(C)C)CC4)cc32)sc1C(N)=O)c1ccccc1C(F)(F)F` [Example 70, 5-[6-({4-[2-(dimethylamino)ethyl]piperazin-1-yl}methyl)-1H-imidazo[4,5-c]pyridin-1-yl]-3-{(1R)-1-[2-(trifluoromethyl)phenyl]ethoxy}thiophene-2-carboxamide], with 7.00 to 8.00; and `CCc1ccccc1COc1cc(-n2cnc3cnc(CO)cc32)sc1C(N)=O` [Example 162, 3-[(2-ethylbenzyl)oxy]-5-[6-(hydroxymethyl)-1H-imidazo[4,5-c]pyridin-1-yl]thiophene-2-carboxamide], with 7.00 to 8.00; and `C[C@@H](Oc1cc(-n2cnc3cnc(CN4CCN(C)CC4CO)cc32)sc1C(N)=O)c1ccccc1C(F)(F)F` (stereo partly drawn) [Example 126, 5-(6-{[2-(hydroxymethyl)-4-methylpiperazin-1-yl]methyl}-1H-imidazo[4,5-c]pyridin-1-yl)-3-{(1R)-1-[2-(trifluoromethyl)phenyl]ethoxy}thiophene-2-carboxamide], with more than 8.00.
As to `NC(=O)c1sc(-n2cnc3ccncc32)cc1OCc1ccccc1OC(F)F` [Example 38, 3-{[2-(difluoromethoxy)benzyl]oxy}-5-(3H-imidazo[4,5-c]pyridin-3-yl)thiophene-2-carboxamide], the pIC50 is 7.00 to 8.00.
As for `CCOc1ccc(OCC)c(COc2cc(-n3cnc4cnc(CO)cc43)sc2C(N)=O)c1` [Example 109, 3-[(2,5-diethoxybenzyl)oxy]-5-[6-(hydroxymethyl)-1H-imidazo[4,5-c]pyridin-1-yl]thiophene-2-carboxamide], the pIC50 is 5.00 to 6.00.
Next, `CC(Oc1cc(-n2cnc3cnccc32)sc1C(N)=O)c1ccccc1C(F)(F)F` (centres unmarked) [Example 14, 5-(1H-Imidazo[4,5-c]pyridin-1-yl)-3-{1-[2-(trifluoromethyl)phenyl]ethoxy}thiophene-2-carboxamide]: 7.00 to 8.00; `NC(=O)c1sc(-n2cnc3cnccc32)cc1OCc1ccc(F)cc1C(F)(F)F` [Example 34, 3-{[4-fluoro-2-(trifluoromethyl)benzyl]oxy}-5-(1H-imidazo[4,5-c]pyridin-1-yl)thiophene-2-carboxamide]: 7.00 to 8.00.
Then `NC(=O)c1sc(-n2cnc3cnccc32)cc1OCc1ccccc1F` [Example 40, 3-[(2-fluorobenzyl)oxy]-5-(1H-imidazo[4,5-c]pyridin-1-yl)thiophene-2-carboxamide], with 7.00 to 8.00; and `CC(Oc1cc(-n2cnc3cnc(CN4CCN(C)CC4)cc32)sc1C(N)=O)c1ccccc1C(F)(F)F` (centres unmarked) [Example 45, 5-{6-[(4-methylpiperazin-1-yl)methyl]-1H-imidazo[4,5-c]pyridin-1-yl}-3-{-1-[2-(trifluoromethyl)phenyl]ethoxy}thiophene-2-carboxamide], with more than 8.00; and `CCN1CCN(Cc2cc3c(cn2)ncn3-c2cc(O[C@H](C)c3ccccc3Cl)c(C(N)=O)s2)CC1` [Example 130, 3-[(1R)-1-(2-chlorophenyl)ethoxy]-5-{6-[(4-ethylpiperazin-1-yl)methyl]-1H-imidazo[4,5-c]pyridin-1-yl}thiophene-2-carboxamide], with more than 8.00.
Take `CCc1ccccc1COc1cc(-n2cnc3cnc(CN4CCN(CC)CC4)cc32)sc1C(N)=O` [Example 154, 3-[(2-ethylbenzyl)oxy]-5-{6-[(4-ethylpiperazin-1-yl)methyl]-1H-imidazo[4,5-c]pyridin-1-yl}thiophene-2-carboxamide]: the pIC50 is 7.00 to 8.00.
Then `CC(Oc1cc(-n2cnc3cnc(CO)cc32)sc1C(N)=O)c1ccccc1C(F)(F)F` (centres unmarked) [Example 44, 5-[6-(hydroxymethyl)-1H-imidazo[4,5-c]pyridin-1-yl]-3-{1-[2-(trifluoromethyl)phenyl]ethoxy}thiophene-2-carboxamide], with more than 8.00; and `C[C@@H](Oc1cc(-n2cnc3cnc(CN4CCN(C5CCCCC5)CC4)cc32)sc1C(N)=O)c1ccccc1C(F)(F)F` [Example 106, 5-{6-[(4-cyclohexylpiperazin-1-yl)methyl]-1H-imidazo[4,5-c]pyridin-1-yl}-3-{(1R)-1-[2-(trifluoromethyl)phenyl]ethoxy}thiophene-2-carboxamide], with 7.00 to 8.00; and `CN(CCN1CCOCC1)C(=O)c1cc2c(cn1)ncn2-c1cc(OCc2ccccc2C(F)(F)F)c(C(N)=O)s1` [Example 11, 1-(5-Carbamoyl-4-{[2-(trifluoromethyl)benzyl]oxy}-2-thienyl)-N-methyl-N-(2-morpholin-4-ylethyl)-1H-imidazo[4,5-c]pyridine-6-carboxamide], with 5.00 to 6.00.
For `COc1cc2c(cn1)ncn2-c1cc(OCc2ccccc2C(F)(F)F)c(C(=O)O)s1` [Example 18, 5-(6-Methoxy-1H-imidazo[4,5-c]pyridin-1-yl)-3-{[2-(trifluoromethyl)benzyl]oxy}thiophene-2-carboxylic acid], the negative-log IC50 (pIC50) was 7.00 to 8.00.
Then `CC(Oc1cc(-n2cnc3ccncc32)sc1C(N)=O)c1ccccc1C(F)(F)F` (centres unmarked) [Example 13, 5-(3H-Imidazo[4,5-c]pyridin-3-yl)-3-{1-[2-(trifluoromethyl)phenyl]ethoxy}thiophene-2-carboxamide], with 7.00 to 8.00; and `NC(=O)c1sc(-n2cnc3cnccc32)cc1OCc1ccc(C(F)(F)F)cc1` [Example 36, 5-(1H-imidazo[4,5-c]pyridin-1-yl)-3-{[4-(trifluoromethyl)benzyl]oxy}thiophene-2-carboxamide], with 6.00 to 7.00; and `CC1CCN(Cc2cc3c(cn2)ncn3-c2cc(O[C@H](C)c3ccccc3C(F)(F)F)c(C(N)=O)s2)CC1` [Example 93, 5-{6-[(4-methylpiperidin-1-yl)methyl]-1H-imidazo[4,5-c]pyridin-1-yl}-3-{(1R)-1-[2-(trifluoromethyl)phenyl]ethoxy}thiophene-2-carboxamide], with 7.00 to 8.00.
Then `CC(Oc1cc(-n2cnc3cnc(CO)cc32)sc1C(N)=O)c1ccc(F)cc1C(F)(F)F` (centres unmarked) [Example 51, 3-{1-[4-fluoro-2-(trifluoromethyl)phenyl]ethoxy}-5-[6-(hydroxymethyl)-1H-imidazo[4,5-c]pyridin-1-yl]thiophene-2-carboxamide], with more than 8.00.
Then `C[C@@H](Oc1cc(-n2cnc3cnc(CN4CCN(CCC#N)CC4)cc32)sc1C(N)=O)c1ccccc1C(F)(F)F` [Example 82, 5-(6-{[4-(2-cyanoethyl)piperazin-1-yl]methyl}-1H-imidazo[4,5-c]pyridin-1-yl)-3-{(1R)-1-[2-(trifluoromethyl)phenyl]ethoxy}thiophene-2-carboxamide], with 7.00 to 8.00; and `CCN1CCN(Cc2cc3c(cn2)ncn3-c2cc(OC(C)c3ccccc3OC(F)F)c(C(N)=O)s2)CC1` (centres unmarked) [Example 135, 3-{1-[2-(difluoromethoxy)phenyl]ethoxy}-5-{6-[(4-ethylpiperazin-1-yl)methyl]-1H-imidazo[4,5-c]pyridin-1-yl}thiophene-2-carboxamide], with more than 8.00.

Source of the values: US8273890B2 (4SC AG, priority 2007, dated 2012).
